Test results published in patent US6844151B1, “Methods for production of arrays with modified oligonucleotide and polynucleotide compositions” (Oligos Etc. Inc., priority 1999, dated 2005).
[pOEt] = p-ethoxy (ethyl phosphotriester) internucleotide linkage

Assays:
[1] = tested on: Regular RNA 20-mer oligonucleotide SEQ ID NO:1; assay: Tm of 20-mer duplexes, modified SEQ ID NO:2 strand bound to Regular RNA SEQ ID NO:1; format: binding; conditions: duplex with Regular RNA SEQ ID NO:1; 4 μM each; 50 mM NaCl, 10 mM PO4 buffer, pH 7.4
Experimental: (§1) The stability of duplexes having 2′-substituted nucleotides versus duplexes without such modification was tested by examining the Tm of these complexes. 4 μM each of 20-mer oligonucleotide (5′-ggt ggt tcc tcc tca gtc gg-3′; SEQ ID NO:1) and its complement (5′- ccg act gag aag gaa cca cc-3;SEQ ID NO:2) were bound in a solution of 50 mM NaCl, 10 mM PO4 buffer, pH 7.4. Each of the nucleotides of the oligonucleotide had the same 2′ group. Following binding, the melting temperature was determined as described. (See L. L. Cummins et al., Nucleic Acids Research 23:2019-2024 (1995).

[2] = tested on: Regular DNA 20-mer oligonucleotide SEQ ID NO:1; assay: Tm of 20-mer duplexes, modified SEQ ID NO:2 strand bound to Regular DNA SEQ ID NO:1; format: binding; conditions: duplex with Regular DNA SEQ ID NO:1; 4 μM each; 50 mM NaCl, 10 mM PO4 buffer, pH 7.4
Experimental: as §1

| Substance | Tm [1] [°C] | Tm [2] [°C] |
| --- | --- | --- |
| 2′-O-methyl: SEQ ID NO:2 20-mer, every nucleotide with 2′-O-methyl group (CCGACTGAGAAGGAACCACC; all 2'-O-methyl, backbone and T or U not given here) | 79 |  |
| Regular DNA: unmodified DNA 20-mer, SEQ ID NO:2 (5′-ccg act gag aag gaa cca cc-3′) (CCGACTGAGAAGGAACCACC; DNA, backbone not given here) [reference compound] | 66 |  |
| p-ethoxy 2′-O-methyl: SEQ ID NO:2 20-mer as p-ethoxy 2′-O-methyl (CCGACTGAGAAGGAACCACC; all 2'-O-methyl, all [pOEt], T or U not given here) | 71 |  |
| p-ethoxy DNA: SEQ ID NO:2 20-mer as p-ethoxy DNA (CCGACTGAGAAGGAACCACC; DNA, all [pOEt], methylation of C not given here) |  | 55 |
| p-ethoxy RNA: SEQ ID NO:2 20-mer as p-ethoxy RNA (CCGACTGAGAAGGAACCACC; RNA, all [pOEt], T or U not given here) | 56 |  |
